Reference: patent publication US20070049518A1, “Novel method of treatment of inflammatory skin conditions” (priority 2005, published 2007)

Columns and labels:
[1] = tested on: protease activity in skin wash samples from patients with acute AD; experiment: Protease activity in skin wash samples, fluorogenic enzyme assay; type: biochemical, human
Method: A method has been developed to evaluate protease activity in skin washings. Skin washings from patients with acute eczema may be obtained by aspirating 0.5 ml sterile physiological saline over the skin surface using a sterile, disposable plastic Pasteur pipette The skin area ( 1 cm^2) is defined by a sterile open-ended plastic cylinder. […] Samples were incubated at 37° C. in a POLARstar Optima plate reader (BMG Labtech Ltd.) and fluorescence readings (320 nm excitation/405 nm emission) taken every 15 min for 6 h. Activity was expressed as the rate of increase in fluorescence as a function of time.

[2] = tested on: V8 protease in S. aureus 8325-4 culture supernatant; experiment: V8 protease activity in supernatant of S. aureus grown with compound; type: cell-based, Staphylococcus aureus
Method: Duplicate samples of brain heart infusion medium (5 ml; Becton Dickinson and Co.) containing 10% skimmed milk and 2% (v/v) DMSO vehicle±Compound 12 were inoculated with S. aureus 8325-4 (approximately 10^7 cells in tryptic soy broth) and incubated for 16 h at 37° C./220 rpm. Cultures were centrifuged to remove bacteria and the culture supernatants stored at −70° C. pending analysis of protease activity.
Enzyme activities were measured in mixtures containing 90 mM MOPS (sodium) buffer pH 7.0 (0.1 ml), 0.045% Brij 35, 2% (v/v) DMSO vehicle±Compound 12 and culture supernatant (4 μl). The concentration of compound used was the same as that which had been used to culture the assayed sample. Further additions to the reaction mixtures were as follows. Aureolysin assay: 4.5 mM calcium chloride, 9 μM E-64 (to inhibit cysteine protease activity) and 10 μM Mca-Pro-Leu-Gly-Leu-Dap(Dnp)-Ala-Arg-amide (Bachem); V8 protease assay: 10 μM Mca-Leu-Glu-Val-Asp-Gly-Trp-Lys(Dnp)-amide (Bachem); cysteine protease assay: 1.8 mM cysteine-HCl (pH-adjusted with NaOH), 9 mM EDTA and 0.1 mM Z-Phe-Arg-AMC hydrochloride (Bachem). The rate of product formation at 37° C. was monitored over 6 h taking readings at 15 min intervals using a POLARstar OPTIMA plate reader (BMG LABTECH Ltd) with 320 nm excitation/405 nm emission for aureolysin and V8 assays and 390 nm excitation/460 nm emission for the cysteine protease assay. Enzyme activities were determined from the linear rate of fluorescence increase and converted to percent inhibition by reference to vehicle control samples.

## CNC(=O)[C@@H](NC(=O)[C@@H](CC(=O)NO)CC(C)C)C(C)(C)C [Compound 11, (R)—N1-((S)-3,3-dimethyl-1-(methylamino)-1-oxobutan-2-yl)-N4-hydroxy-2-isobutylsuccinamide]
[1]; 50 μM, fluorogenic assay, AD patients
  inhibition of protease activity in skin wash samples (in words): significant inhibition of protease activity
[1]; 50 μM, skin wash sample 5
  % Inhibition protease activity with compound 11: 100%
[1]; 50 μM, skin wash sample 7
  % Inhibition protease activity with compound 11: 48.7%
[1]; 50 μM, skin wash sample 14
  % Inhibition protease activity with compound 11: 88.5%
[1]; 50 μM, skin wash sample 17
  % Inhibition protease activity with compound 11: 96.4%
[1]; 50 μM, skin wash sample 18
  % Inhibition protease activity with compound 11: 75.6%
[1]; 50 μM, skin wash sample 21
  % Inhibition protease activity with compound 11: 85.1%
[1]; 50 μM, skin wash sample 26
  % Inhibition protease activity with compound 11: 85.3%
[1]; 50 μM, skin wash sample 30
  % Inhibition protease activity with compound 11: 100%
[1]; 50 μM, skin wash sample 36
  % Inhibition protease activity with compound 11: 95.3%
[1]; 50 μM, skin wash sample 37
  % Inhibition protease activity with compound 11: 81.8%
[1]; 50 μM, skin wash sample 39
  % Inhibition protease activity with compound 11: 100%
[1]; 50 μM, skin wash sample 40
  % Inhibition protease activity with compound 11: 85.6%
[1]; 50 μM, skin wash sample 43
  % Inhibition protease activity with compound 11: 91.8%
[1]; 50 μM, skin wash sample 48
  % Inhibition protease activity with compound 11: 96.9%
[1]; skin wash sample 5
  Protease activity with 50 μM compound 11: 0 FIU/min/μl
[1]; skin wash sample 7
  Protease activity with 50 μM compound 11: 0.271 FIU/min/μl
[1]; skin wash sample 14
  Protease activity with 50 μM compound 11: 0.0761 FIU/min/μl
[1]; skin wash sample 17
  Protease activity with 50 μM compound 11: 0.123 FIU/min/μl
[1]; skin wash sample 18
  Protease activity with 50 μM compound 11: 0.0674 FIU/min/μl
[1]; skin wash sample 21
  Protease activity with 50 μM compound 11: 0.0302 FIU/min/μl
[1]; skin wash sample 24 (activity without compound 0)
  Protease activity with 50 μM compound 11: 0.00122 FIU/min/μl
[1]; skin wash sample 26
  Protease activity with 50 μM compound 11: 0.0554 FIU/min/μl
[1]; skin wash sample 30
  Protease activity with 50 μM compound 11: 0 FIU/min/μl
[1]; skin wash sample 36
  Protease activity with 50 μM compound 11: 0.0173 FIU/min/μl
[1]; skin wash sample 37
  Protease activity with 50 μM compound 11: 0.126 FIU/min/μl
[1]; skin wash sample 39
  Protease activity with 50 μM compound 11: 0 FIU/min/μl
[1]; skin wash sample 40
  Protease activity with 50 μM compound 11: 0.103 FIU/min/μl
[1]; skin wash sample 43
  Protease activity with 50 μM compound 11: 0.0814 FIU/min/μl
[1]; skin wash sample 48
  Protease activity with 50 μM compound 11: 0.0287 FIU/min/μl

## CNC(=O)[C@@H](NC(=O)[C@H](CC(=O)NO)CC(C)C)C(C)(C)C [Compound 12, (S)—N1-((S)-3,3-dimethyl-1-(methylamino)-1-oxobutan-2-yl)-N4-hydroxy-2-isobutylsuccinamide]
[2]; Compound 12 40 μM in culture and assay
  Inhibition (%) V8 protease: 83%
[2]; Compound 12 79 μM in culture and assay
  Inhibition (%) V8 protease: 91%
[2]; Compound 12 159 μM in culture and assay
  Inhibition (%) V8 protease: 97%
[2]; Compound 12 317 μM in culture and assay
  Inhibition (%) V8 protease: 99%
